{"source": "patent US8999967B2", "about": "“Tricyclic fused ring inhibitors of hepatitis C” (Presidio Pharmaceuticals, Inc., priority 2010, dated 2015)"}
{"test_system": "HCV 1b_Huh-Luc/Neo-ET cell line (genotype 1b replicon in Huh 7 cells)", "experiment": "HCV replicon assay (luciferase readout)", "type": "cell-based", "settings": "Hepatitis C virus, HCV 1b replicon in Huh 7 cells, 72 h incubation, EC50 range class, read-out: Inhibition of HCV genotype 1b", "protocol": "Biological activity of the compounds of the invention was determined using an HCV replicon assay. The HCV 1b_Huh-Luc/Neo-ET cell line persistently expressing a bicistronic genotype 1b replicon in Huh 7 cells was obtained from ReBLikon GMBH. This cell line was used to test compound inhibition using luciferase enzyme activity readout as a measurement of compound inhibition of replicon levels.\nOn Day 1 (the day after plating cells), each compound is added in triplicate to the cells. Plates are incubated for 72 h prior to determining luciferase levels. Enzyme activity was measured using a Bright-Glo Kit (cat. number E2620) manufactured by Promega Corporation. The following equation was used to generate a percent control value for each compound. % Control=(Compound Luciferase Level/Control Luciferase Level)*100\nThe EC50 value was determined using GraphPad Prism and the following equation: Y=Bottom asymptote+(Top asymptote-Bottom asymptote)/(1+10^((Log EC50−X)*HillSlope))\nEC50 values of compounds are determined several times in the replicon assay to generate average EC50 values. […]", "units": {"EC50": "nM"}}
{"compound": "COC(=O)N[C@H](C(=O)N1CCC[C@H]1c1ncc(-c2ccc3c(c2)C(C)(C)c2ccc(-c4ccc5nc([C@@H]6CCCN6C(=O)[C@@H](NC(=O)OC)[C@@H](C)OC)[nH]c5c4)cc2O3)[nH]1)[C@@H](C)OC", "note": "[Compound 146]", "EC50": "< 1"}
{"compound": "COC(=O)N[C@H](C(=O)N1CCC[C@H]1c1ncc(-c2ccc3c(c2)CCc2cc(-c4cnc([C@@H]5CCCN5C(=O)[C@@H](NC(=O)OC)C(C)C)[nH]4)ccc2O3)[nH]1)C(C)C", "note": "[Example 7]", "EC50": "< 1"}
{"compound": "COC(=O)N[C@H](C(=O)N1CCC[C@H]1c1ncc(-c2ccc3c(c2)Cc2cc(Cl)c(-c4cnc([C@@H]5CCCN5C(=O)[C@@H](NC(=O)OC)C(C)C)[nH]4)cc2O3)[nH]1)C(C)C", "note": "[Compound 61]", "EC50": "< 1"}
{"compound": "COC(=O)N[C@H](C(=O)N1CCC[C@H]1c1ncc(-c2ccc3c(=O)c4cc(-c5cnc([C@@H]6CCCN6C(=O)[C@@H](NC(=O)OC)C(C)C)[nH]5)ccc4oc3c2)[nH]1)C(C)C", "note": "[Example 8]", "EC50": "< 1"}
{"compound": "COC(=O)N[C@H](C(=O)N1CCC[C@H]1c1ncc(-c2ccc3oc4cc(-c5cnc([C@@H]6CCCN6C(=O)[C@@H](NC(=O)OC)C6CCOCC6)[nH]5)ccc4c(=O)c3c2)[nH]1)C(C)C", "note": "[Example 17]", "EC50": "< 1"}
{"compound": "COC(=O)N[C@H](C(=O)N1CCC[C@H]1c1ncc(-c2ccc3c(c2)Oc2ccc(-c4cnc([C@@H]5CCCN5C(=O)[C@@H](NC(=O)OC)C5CCCC5)[nH]4)cc2O3)[nH]1)C1CCCC1", "note": "[Compound 33]", "EC50": "< 1"}
{"compound": "CC[C@H](C)[C@H](NC(=O)OC)C(=O)N1CCC[C@H]1c1ncc(-c2ccc3c(c2)Oc2ccc(-c4cnc([C@@H]5CSCN5C(=O)[C@@H](NC(=O)OC)[C@@H](C)CC)[nH]4)cc2C3)[nH]1", "note": "[Compound 125]", "EC50": "< 1"}
{"compound": "COC(=O)N[C@H](C(=O)N1CCC[C@H]1c1ncc(-c2ccc3c(c2)Oc2ccc(-c4cnc([C@@H]5CCCN5C(=O)[C@@H](NC(=O)OC)C5CCOCC5)[nH]4)cc2O3)[nH]1)C1CCOCC1", "note": "[Compound 35]", "EC50": "< 1"}
{"compound": "COC(=O)N[C@H](C(=O)N1CCC[C@H]1c1ncc(-c2ccc3c(c2)Oc2ccc(-c4cnc([C@@H]5CCCN5C(=O)[C@@H](NC(=O)OC)[C@@H](C)OC)[nH]4)cc2O3)[nH]1)[C@@H](C)OC", "note": "[Compound 34]", "EC50": "< 1"}
{"compound": "[2H]C([2H])([2H])C([2H])(C([2H])([2H])[2H])[C@]([2H])(NC(=O)OC)C(=O)N1CCC[C@H]1c1ncc(-c2ccc3c(c2)C(C)(C)c2ccc(-c4ccc5nc([C@@H]6CCCN6C(=O)[C@@]([2H])(NC(=O)OC)C([2H])(C([2H])([2H])[2H])C([2H])([2H])[2H])[nH]c5c4)cc2O3)[nH]1", "note": "[Compound 147]", "EC50": "< 1"}
{"compound": "COC(=O)N[C@H](C(=O)N1CCC[C@H]1c1ncc(-c2ccc3c(=O)c4cc(-c5cnc([C@@H]6CCCN6C(=O)[C@H](NC(=O)OC)c6ccccc6)[nH]5)ccc4oc3c2)[nH]1)C(C)C", "note": "[Example 15]", "EC50": "< 1"}
{"compound": "COC(=O)N[C@@H](C(=O)N1CCC[C@H]1c1ncc(-c2ccc3nc4cc(-c5cnc([C@@H]6CCCN6C(=O)[C@H](NC(=O)OC)c6ccccc6)[nH]5)ccc4nc3c2)[nH]1)c1ccccc1", "note": "[Example 2]", "EC50": "< 1"}
{"compound": "COC(=O)N[C@@H](C(=O)N1CCC[C@H]1c1ncc(-c2ccc3oc4cc(-c5cnc([C@@H]6CCCN6C(=O)[C@H](NC(=O)OC)c6ccccc6)[nH]5)c(F)cc4c(=O)c3c2)[nH]1)c1ccccc1", "note": "[Example 24]", "EC50": "< 1"}
{"compound": "COC(=O)N[C@H](C(=O)N1CCC[C@H]1c1ncc(-c2ccc3c(c2)Oc2nnc(-c4cnc([C@@H]5CCCN5C(=O)[C@@H](NC(=O)OC)C(C)C)[nH]4)cc2O3)[nH]1)C(C)C", "note": "[Compound 151]", "EC50": "1 to 9.9"}
{"compound": "COC(=O)N[C@H](C(=O)N1CCC[C@H]1c1ncc(-c2ccc3c(=O)c4cc(-c5cnc([C@@H]6CSCN6C(=O)[C@@H](NC(=O)OC)[C@@H](C)OC)[nH]5)ccc4oc3c2)[nH]1)[C@@H](C)OC", "note": "[Compound 120]", "EC50": "< 1"}
{"compound": "CC[C@H](C)[C@H](NC(=O)OC)C(=O)N1CCC[C@H]1c1ncc(-c2ccc3c(c2)Cc2cc(F)c(-c4cnc([C@@H]5CCCN5C(=O)[C@@H](NC(=O)OC)[C@@H](C)CC)[nH]4)cc2O3)[nH]1", "note": "[Compound 53]", "EC50": "< 1"}
{"compound": "COC(=O)N[C@@H](C(=O)N1CCCC[C@H]1c1ncc(-c2ccc3c(c2)Oc2ccc(-c4cnc([C@@H]5CCCCN5C(=O)[C@H](NC(=O)OC)c5ccccc5)[nH]4)cc2O3)[nH]1)c1ccccc1", "note": "[Compound 48]", "EC50": "< 1"}
{"compound": "COC(=O)N[C@@H](C(=O)N1CCC[C@H]1c1ncc(-c2ccc3c(=O)c4cc(-c5cnc([C@@H]6CSCN6C(=O)[C@H](NC(=O)OC)c6ccccc6)[nH]5)ccc4oc3c2)[nH]1)c1ccccc1", "note": "[Compound 121]", "EC50": "< 1"}
{"compound": "COC(=O)N[C@H](C(=O)N1CCC[C@H]1c1ncc(-c2ccc3c(c2)Cc2cc(F)c(-c4cnc([C@@H]5CCCN5C(=O)[C@@H](NC(=O)OC)[C@@H](C)OC)[nH]4)cc2O3)[nH]1)[C@@H](C)OC", "note": "[Compound 40]", "EC50": "< 1"}
{"compound": "COC(=O)N[C@H](C(=O)N1CCC[C@H]1c1ncc(-c2ccc3c(c2)Cc2cc(-c4cnc([C@@H]5CCCN5C(=O)[C@@H](NC(=O)OC)C(C)C)[nH]4)ccc2O3)[nH]1)C(C)C", "note": "[Example 4]", "EC50": "10 to 999"}
{"compound": "COC(=O)N[C@H](C(=O)N1CCC[C@H]1c1ncc(-c2ccc3c(c2)Oc2ccc(-c4cnc([C@@H]5CCCN5C(=O)[C@@H](NC(=O)OC)[C@@H](C)OC)[nH]4)cc2C3(C)C)[nH]1)[C@@H](C)OC", "note": "[Compound 71]", "EC50": "< 1"}
{"compound": "COC(=O)N[C@H](C(=O)N1CCC[C@H]1c1ncc(-c2ccc3c(c2)Oc2ccc(-c4cnc([C@@H]5CCCN5C(=O)[C@@H](NC(=O)OC)C(C)C)[nH]4)cc2C3(C)C)[nH]1)C(C)C", "note": "[Example 10]", "EC50": "< 1"}
{"compound": "COC(=O)N[C@H](C(=O)N1CCC[C@H]1c1ncc(-c2cc3c(cc2F)Cc2cc(-c4cnc([C@@H]5CCCN5C(=O)[C@@H](NC(=O)OC)[C@@H](C)OC)[nH]4)ccc2O3)[nH]1)C(C)C", "note": "[Example 29]", "EC50": "< 1"}
{"compound": "C=CC[C@H](NC(=O)OC)C(=O)N1CCC[C@H]1c1ncc(-c2ccc3c(c2)C(C)(C)c2ccc(-c4ccc5nc([C@@H]6CCCN6C(=O)[C@H](CC=C)NC(=O)OC)[nH]c5c4)cc2O3)[nH]1", "note": "[Compound 148]", "EC50": "< 1"}
{"compound": "COC(=O)N[C@H](C(=O)N1CCC[C@H]1c1nc2ccc(-c3ccc4c(=O)c5cc(-c6cnc([C@@H]7CCCN7C(=O)[C@H](NC(=O)OC)c7ccccc7)[nH]6)ccc5oc4c3)cc2[nH]1)C(C)C", "note": "[Compound 137]", "EC50": "< 1"}
{"compound": "COC(=O)N[C@H](C(=O)N1CCCC[C@H]1c1ncc(-c2ccc3c(c2)Oc2ccc(-c4cnc([C@@H]5CCCCN5C(=O)[C@@H](NC(=O)OC)C(C)C)[nH]4)cc2O3)[nH]1)C(C)C", "note": "[Compound 47]", "EC50": "< 1"}
{"compound": "C#CC[C@H](NC(=O)OC)C(=O)N1CCC[C@H]1c1ncc(-c2ccc3c(c2)C(C)(C)c2ccc(-c4ccc5nc([C@@H]6CCCN6C(=O)[C@H](CC#C)NC(=O)OC)[nH]c5c4)cc2O3)[nH]1", "note": "[Compound 150]", "EC50": "< 1"}
{"compound": "CC[C@H](C)[C@H](NC(=O)OC)C(=O)N1CCC[C@H]1c1ncc(-c2ccc3oc4cc(-c5ccc6nc([C@@H]7CCCN7C(=O)[C@@H](NC(=O)OC)C(C)C)[nH]c6c5)ccc4c(=O)c3c2)[nH]1", "note": "[Compound 136]", "EC50": "< 1"}
{"compound": "COC(=O)N[C@H](C(=O)N1CCC[C@H]1c1ncc(-c2ccc3c(c2)Oc2ccc(-c4cnc([C@@H]5COCCN5C(=O)[C@@H](NC(=O)OC)C(C)C)[nH]4)cc2C3)[nH]1)C(C)C", "note": "[Compound 144]", "EC50": "< 1"}
{"compound": "CC[C@H](C)[C@H](NC(=O)OC)C(=O)N1CCC[C@H]1c1ncc(-c2ccc3c(c2)Oc2ccc(-c4cnc([C@@H]5CCCN5C(=O)[C@@H](NC(=O)OC)[C@@H](C)CC)[nH]4)cc2C32CC2)[nH]1", "note": "[Compound 79]", "EC50": "< 1"}
{"compound": "CC[C@H](C)[C@H](NC(=O)OC)C(=O)N1CCC[C@H]1c1ncc(-c2ccc3c(c2)Cc2cc(Cl)c(-c4cnc([C@@H]5CCCN5C(=O)[C@@H](NC(=O)OC)[C@@H](C)CC)[nH]4)cc2O3)[nH]1", "note": "[Compound 63]", "EC50": "< 1"}
{"compound": "COC(=O)N[C@H](C(=O)N1CCC[C@H]1c1ncc(-c2ccc3c(c2)Cc2ccc(-c4cnc([C@@H]5CCCN5C(=O)[C@@H](NC(=O)OC)[C@@H](C)OC)[nH]4)cc2O3)[nH]1)[C@@H](C)OC", "note": "[Compound 30]", "EC50": "< 1"}
{"compound": "CC[C@H](C)[C@H](NC(=O)OC)C(=O)N1CCC[C@H]1c1ncc(-c2ccc3c(c2)Oc2ccc(-c4cnc([C@@H]5COCCN5C(=O)[C@@H](NC(=O)OC)[C@@H](C)CC)[nH]4)cc2C3)[nH]1", "note": "[Compound 143]", "EC50": "< 1"}
{"compound": "COC(=O)N[C@@H](C(=O)N1CCC[C@H]1c1ncc(-c2ccc3oc4cc(-c5cnc([C@@H]6CCCN6C(=O)[C@H](NC(=O)OC)c6ccccc6)[nH]5)c(C)cc4c(=O)c3c2)[nH]1)c1ccccc1", "note": "[Compound 127]", "EC50": "< 1"}
{"compound": "COC(=O)N[C@H](C(=O)N1CCC[C@H]1c1ncc(-c2ccc3c(c2)Oc2ccc(-c4cnc([C@@H]5CCCN5C(=O)[C@@H](NC(=O)OC)C(C)C)[nH]4)cc2O3)[nH]1)C(C)C", "note": "[Example 3]", "EC50": "< 1"}
{"compound": "COC(=O)N[C@H](C(=O)N1CCC[C@H]1c1ncc(-c2ccc3c(=O)c4cc(-c5cnc([C@@H]6CCCN6C(=O)[C@@H](NC(=O)OC)C6CCOCC6)[nH]5)ccc4oc3c2)[nH]1)C(C)C", "note": "[Example 16]", "EC50": "< 1"}
{"compound": "COC(=O)N[C@H](C(=O)N1CCC[C@H]1c1ncc(-c2ccc3oc4cc(-c5cnc([C@@H]6CCCN6C(=O)[C@@H](NC(=O)OC)C6CCOCC6)[nH]5)c(F)cc4c(=O)c3c2)[nH]1)C1CCOCC1", "note": "[Example 23]", "EC50": "< 1"}
{"compound": "COC(=O)N[C@H](C(=O)N1CCOC[C@H]1c1ncc(-c2ccc3c(c2)Oc2ccc(-c4cnc([C@@H]5COCCN5C(=O)[C@@H](NC(=O)OC)C(C)C)[nH]4)cc2O3)[nH]1)C(C)C", "note": "[Compound 64]", "EC50": "< 1"}
